This note sets out measurements from patent publication US20220289794A1, “SYNTHETIC ANTIMICROBIAL PEPTIDES” (priority 2019, published 2022).

Values after ≈ are worked out from the molar mass of the structure shown. Read-outs that look alike come from different tables or passages of the source. Positions of bridges follow the written chain, without caps; N, C: chain ends. Non-standard residues stand in square brackets, D forms with d. Residues, ends and D or L forms follow the SMILES beside them. d2Nal = N[C@H](Cc1ccc2ccccc2c1)C(=O)O

As usually defined, the HC50 is the concentration giving 50% haemolysis. Broadly, the MIC is the smallest concentration in the dilution series that meets the test's criterion for growth inhibition.

The subject of data set [1] is Methicillin-resistant Staphylococcus aureus MRSA (ATCC BAA-1556).
For data set [2], the system named is Pseudomonas aeruginosa (ATCC 27883). Particulars: P. aeruginosa ATCC 27883.
For data set [3], the system named is Escherichia coli (ATCC 25922).
Data set [4] concerns K. pneumoniae strain ATCC BAA-2470 biofilm.
Experimental: Bacteria. The bacterial strains employed in these assays were obtained from the American Type Culture Collection (ATCC). Each strain was propagated as recommended by the ATCC and each strain was stored as a frozen glycerol stock at −80° C.
Bacterial Propagation. […] Following the incubation, the culture was diluted to an optical density 625 nm (OD625) of 0.1 in cation adjusted Mueller Hinton Broth (CAMHB), which is equivalent to 1×10^8 CFU/mL. The culture was further diluted to 1×10^6 CFU/mL which was used for the assay.
Determination of the Temporal Effects of SPL7013 Addition to Inhibit Biofilm Formation. Each strain of bacteria was adjusted to a concentration of 1×10^6 CFU/mL and added to a 96-well flat-bottomed plate in a volume of 100 mL. One-hundred microliters (100 mL) of each compound at 10 concentrations was added in triplicate wells. The cultures were incubated for 24 hours at 37° C. under the appropriate growth conditions for each organism. Following the incubation, the media was removed, and the formed biofilms were fixed for 1 hour at 60° C. Two-hundred microliters (200 mL) of 0.06% crystal violet was added to the wells for 5 to 10 minutes and the wells were then gently washed three times with deionized H2O to remove the crystal violet. Following crystal violet staining 200 mL of 70% ethanol was added to the wells.
A further data set is described as follows: in vitro. To be noted: human, fresh human red blood cells (washed), pH 7.4.
In data set [5] the test system is Enterococcus faecium ATCC 27270. Particulars: for MIC: ATCC 27270.
Data set [6] relates to Enterococcus faecium ATCC 700221. To be noted: for MIC: ATCC 700221.
The test system of data set [7] is Staphylococcus aureus ATCC 29213.
Data set [8] concerns Klebsiella pneumoniae ATCC 13883.
In data set [9] the test system is Enterococcus faecalis ATCC 29212. To be noted: for MIC: ATCC 29212.
The test system of data set [10] is Enterococcus faecalis ATCC 51575. Particulars: for MIC: ATCC 51575.
Data set [11] concerns Bacillus subtilis (ATCC-6633).
Data set [12] deals with Bacillus cereus (ATCC-13061).
Data set [13] deals with Escherichia coli (ATCC BAA-2452).
The test system of data set [14] is Acinetobacter baumannii (ATCC BAA-1605).
Data set [15] relates to Pseudomonas aeruginosa (ATCC 10145).
In data set [16] the test system is Pseudomonas aeruginosa (ATCC BAA-1744).
Data set [17] relates to Streptococcus pneumoniae ATCC 49619. Particulars: for MIC: ATCC 49619.
The subject of data set [18] is Streptococcus pneumoniae ATCC 51938. To be noted: for MIC: ATCC 51938.
Data set [19] deals with Pseudomonas aeruginosa (PSA, ATCC 27883). Nature of the data set: Synergy checkerboard assay (FIC index). To be noted: Table 27; Pseudomonas aeruginosa (ATCC 27883); peptide alone. The data set is classed as cell-based.
In another data set the test system is B. subtilis (ATCC-6633). Nature of the data set: Broad-spectrum activity against Gram-Positive bacteria (MIC). More on the design: unit not given here. The data set is classed as cell-based.
Another data set has as its system E. coli (ATCC BAA-2452). Nature of the data set: Broad-spectrum activity against Gram-Negative bacteria (MIC). Particulars: Table 16, Gram-negative panel. It counts as cell-based.
For the next data set, the system named is B. cereus (ATCC-13061). In words: Broad-spectrum activity against Gram-Positive bacteria (MIC). The data set is classed as cell-based. Set-up: unit not given here.
Data set [20] has as its system A. baumannii (ATCC BAA-1605). In words: Broad-spectrum activity against Gram-Negative bacteria (MIC). It counts as cell-based. To be noted: Table 16, Gram-negative panel.
The test system of data set [21] is P. aeruginosa (ATCC 10145). The description is as above. It counts as cell-based. To be noted: Table 16, Gram-negative panel.
Data set [22] relates to P. aeruginosa (ATCC BAA-1744). The description is as above. The data set is classed as cell-based. To be noted: Table 16, Gram-negative panel.
For data set [23], the system named is Klebsiella pneumoniae (ATCC BAA-1705). To be noted: Table 16, Gram-negative panel.
The test system of a further data set is MRSA (ATCC BAA-1556). To be noted: ATCC BAA-1556.
Data set [24] concerns Klebsiella pneumoniae (KPC, ATCC BAA-1705). To be noted: ATCC BAA-1705.
The test system of data set [25] is Escherichia coli (E. Coli, ATCC 25922). Particulars: ATCC 25922.

Turning to `N=C(N)NCCC[C@@H]1NC(=O)[C@@H](CCCNC(=N)N)NC(=O)[C@H](CCCNC(=N)N)NC(=O)[C@@H](Cc2ccc3ccccc3c2)NC(=O)[C@@H](Cc2ccc3ccccc3c2)NC(=O)[C@H](Cc2c[nH]c3ccccc23)NC(=O)[C@@H](CCCNC(=N)N)NC1=O` [IFX-111, c[Arg-arg-Arg-arg-Trp-naI-naI]] (cyclo(R[dR]R[dR]W[d2Nal][d2Nal])), the “MIC MRSA ATCC BAA-1556” value in data set [1] (ATCC BAA-1556) worked out at 1.5 µg/mL (≈ 1.24 µM). Also, the “MIC S. aureus ATCC 29213” value against S. aureus ATCC 29213 (ATCC 29213) is 1.5 µg/mL (≈ 1.24 µM). Besides, the “MIC P. aeruginosa ATCC 27883” value in [2] stood at 12.5 µg/mL (≈ 10.4 µM). The “MIC E. coli ATCC 25922” value in data set [3] (ATCC 25922) came out at 6.2 µg/mL (≈ 5.14 µM). Further, the “inhibition of biofilm formation” value in data set [4] (ATCC BAA-2470) is recorded as ≤ 23%. Further, the HC50 at 0.5 h in “in vitro” is 205 µg/mL.

Take `CN(C)c1cc(NC(=O)CNC(C)(C)C)c(O)c2c1C[C@H]1C[C@H]3[C@H](N(C)C)C(O)=C(C(N)=O)C(=O)[C@@]3(O)C(O)=C1C2=O` [Tigecycline, reference compound]: in [4] (K. pneumoniae, two of the lowest concentrations, 0.2 mg/mL and 0.1 mg/mL), the “change of biofilm formation” value is on record as “increase in biofilm formation”.

With `N=C(N)NCCC[C@@H]1NC(=O)[C@H](CCCNC(=N)N)NC(=O)[C@H](CCCNC(=N)N)NC(=O)[C@@H]2CSSC[C@H](NC(=O)[C@H](CCCNC(=N)N)NC1=O)C(=O)N[C@@H](Cc1c[nH]c3ccccc13)C(=O)N[C@@H](Cc1c[nH]c3ccccc13)C(=O)N[C@@H](Cc1c[nH]c3ccccc13)C(=O)N[C@@H](Cc1c[nH]c3ccccc13)C(=O)N2` [[R3CW4CR] (IFX-330)] (cyclo(RRRCWWWWCR); disulfide 4-9), the MIC in [5] is 8 µg/mL (≈ 5.08 µM); in [6] it was 8 µg/mL (≈ 5.08 µM); in data set [7], 16 µg/mL (≈ 10.2 µM); in data set [8] (ATCC 13883), 32 µg/mL (≈ 20.3 µM); in data set [9] it was 32 µg/mL (≈ 20.3 µM); in data set [10], 32 µg/mL (≈ 20.3 µM). Besides, the MIC in the data set on MRSA was 8 µg/mL (≈ 5.08 µM); with KPC, 32 µg/mL (≈ 20.3 µM); against PSA it was 128 µg/mL (≈ 81.3 µM); against E. coli it was 32 µg/mL (≈ 20.3 µM); in [11] it was 8 µg/mL (≈ 5.08 µM); in data set [12] it was 16 µg/mL (≈ 10.2 µM). The minimum inhibitory concentration (MIC) in data set [13] (ATCC BAA-2452) was 32 µg/mL (≈ 20.3 µM); in [14] (ATCC BAA-1605) it was 32 µg/mL (≈ 20.3 µM); in data set [15] (ATCC 10145) it was 64 µg/mL (≈ 40.7 µM); in data set [16] (ATCC BAA-1744), 32 µg/mL (≈ 20.3 µM).

In the case of `N=C(N)NCCC[C@@H]1NC(=O)[C@H](CCCNC(=N)N)NC(=O)[C@H](CCCNC(=N)N)NC(=O)[C@H](CCCCN)NC(=O)[C@H](Cc2c[nH]c3ccccc23)NC(=O)[C@H](Cc2c[nH]c3ccccc23)NC(=O)[C@H](Cc2c[nH]c3ccccc23)NC(=O)[C@H](Cc2c[nH]c3ccccc23)NC(=O)[C@H](CCCNC(=N)N)NC(=O)[C@H](CCCNC(=N)N)NC1=O` [[R5W4K] (IFX-315)] (cyclo(RRRRRWWWWK)), the MIC amounted to 8 µg/mL (≈ 4.84 µM) in data set [5]; 8 µg/mL (≈ 4.84 µM) in data set [6]; 8 µg/mL (≈ 4.84 µM) in data set [7]; 8 µg/mL (≈ 4.84 µM) in [8] (ATCC 13883); 16 µg/mL (≈ 9.67 µM) in [9]; 32 µg/mL (≈ 19.3 µM) in data set [10]. In addition, the MIC in data set [17] is 2 µg/mL (≈ 1.21 µM); in [18], 2 µg/mL (≈ 1.21 µM); against MRSA, 8 µg/mL (≈ 4.84 µM); in the data set on KPC, 32 µg/mL (≈ 19.3 µM); with PSA, 16 µg/mL (≈ 9.67 µM); with E. coli it was 16 µg/mL (≈ 9.67 µM). In addition, the MIC amounted to 8 µg/mL (≈ 4.84 µM) in data set [11]; 16 µg/mL (≈ 9.67 µM) in [12]; 25 µg/mL (≈ 15.1 µM) in data set [13] (ATCC BAA-2452); 32 µg/mL (≈ 19.3 µM) in [14] (ATCC BAA-1605); 32 µg/mL (≈ 19.3 µM) in data set [15] (ATCC 10145); 16 µg/mL (≈ 9.67 µM) in data set [16] (ATCC BAA-1744).

“c[Arg-Arg-arg-arg-naI-Trp-naI] [IFX-135]”: the IFX135 MIC in data set [19] worked out at 32 µg/mL; with MRSA (ATCC BAA-1556) it was 2 µg/mL; in data set [24], 16 µg/mL; in data set [25], 8 µg/mL. Moreover, the “Broad-spectrum activity B. subtilis (ATCC-6633)” value in the data set on B. subtilis (ATCC-6633) is 1.5. The same compound registered an MIC E. coli (ATCC BAA-2452) in the data set with E. coli (ATCC BAA-2452) of 12.5 µg/mL. The “Broad-spectrum activity B. cereus (ATCC-13061)” value in the data set with B. cereus (ATCC-13061) is given as 6.2. This compound also came in with an MIC A. baumannii (ATCC BAA-1605) in [20] of 12.5 µg/mL. For the same compound, the MIC P. aeruginosa (ATCC 10145) in data set [21] turned out to be 25 µg/mL. The compound further had an MIC P. aeruginosa (ATCC BAA-1744) in data set [22] of 12.5 µg/mL. The “MIC MRSA ATCC BAA-1556” value in [1] (MRSA ATCC BAA-1556) was determined as 1.5 µg/mL. The “MIC S. aureus ATCC 29213” value with S. aureus ATCC 29213 (S. aureus ATCC 29213) is 1.5 µg/mL. Further, the “MIC P. aeruginosa ATCC 27883” value in [2] is 32 µg/mL. In [3] (E. coli ATCC 25922), the “MIC E. coli ATCC 25922” value came out at 8 µg/mL. Also, the MIC K. pneumonia (ATCC BAA-1705) in data set [23] stood at 12.5 µg/mL. Moreover, the MIC in [5] is 4 µg/mL; in [6], 4 µg/mL; in data set [7], 2 µg/mL; in data set [8] (Table 36, Klebsiella pneumonia (ATCC 13883)), 64 µg/mL; in data set [9] it was 8 µg/mL; in data set [10] it was 16 µg/mL. In addition, the MIC in [17] was 16 µg/mL; in data set [18], 16 µg/mL; in the data set on MRSA, 2 µg/mL; against KPC (Table 36, Klebsiella pneumoniae (ATCC BAA-1705)), 16 µg/mL; against PSA (Table 36, P. aeruginosa ATCC 27883), 32 µg/mL; with E. coli (Table 36, E. coli ATCC 25922), 8 µg/mL. For the same compound, the MIC in data set [11] is 2 µg/mL; in data set [12] it was 8 µg/mL; in data set [13] (Table 36, Escherichia coli (ATCC BAA-2452)), 16 µg/mL; in [14] (Table 36, Acinetobacter baumannii (ATCC BAA-1605)), 16 µg/mL; in data set [15] (Table 36, Pseudomonas aeruginosa (ATCC 10145)), 32 µg/mL; in data set [16] (Table 36, Pseudomonas aeruginosa (ATCC BAA-1744)), 16 µg/mL. In addition, in [5] (E. faecium ATCC 27270), the “Broad-spectrum activity E. faecium (ATCC 27270)” value came out at 3.1. Further, the “Broad-spectrum activity E. faecium (ATCC 700221)” value in [6] (E. faecium ATCC 700221) was 3.1. The MIC K. pneumonia (ATCC 13883) in [8] (Table 16, Gram-negative panel) was found to be 50 µg/mL. In addition, the “Broad-spectrum activity E. faecalis (ATCC 29212)” value in [9] (E. faecalis ATCC 29212) worked out at 6.2. In addition, the “Broad-spectrum activity E. faecalis (ATCC 51575)” value in data set [10] (E. faecalis ATCC 51575) came out at 12.5. Also, the “Broad-spectrum activity S. pneumoniae (ATCC 49619)” value in [17] (S. pneumoniae ATCC 49619) is on record as 12.5. For the same compound, in [18] (S. pneumoniae ATCC 51938), the “Broad-spectrum activity S. pneumoniae (ATCC 51938)” value was found to be 12.5.
